Values joined by “and” are separate entries in the source; they are usually repeats but may differ in a detail not shown here. Equal entries are not always repeated. Where two headings read alike, the source gives them in different places.
How the values were obtained:
[1] = target: M3 muscarinic receptor (Homo sapiens, UniProt P20309); assay: R-SAT competitive antagonist assay; assay type: cell-based; details: nr = no significant antagonist or inverse agonist activity up to 1 μM, nr* = nr but significant agonist activity, read-out: pKi M3, competitive antagonist (converted)
[2] = target: H1 receptors (Homo sapiens, UniProt P35367); assay: Ligand binding screen at 10 μM
[3] = test system: amphetamine-induced hyperactivity; assay: Reversal of amphetamine-induced hyperactivity; assay type: in vivo, Non-Swiss Albino (NSA) mice; details: s.c. or p.o.
[4] = Pharmacokinetics after single i.v. or oral dose in rats; assay type: in vivo, Sprague-Dawley rats; details: rat; for bioavailability: read-out: BA (oral bioavailability)
[5] = target: T1, α1A (Alpha 1A) adrenergic receptor (Homo sapiens, UniProt P35348); details: R-SAT; nr = no significant antagonist or inverse agonist activity up to 1 μM; nr* = nr but significant agonist activity
T1 sequence (P35348 1-466): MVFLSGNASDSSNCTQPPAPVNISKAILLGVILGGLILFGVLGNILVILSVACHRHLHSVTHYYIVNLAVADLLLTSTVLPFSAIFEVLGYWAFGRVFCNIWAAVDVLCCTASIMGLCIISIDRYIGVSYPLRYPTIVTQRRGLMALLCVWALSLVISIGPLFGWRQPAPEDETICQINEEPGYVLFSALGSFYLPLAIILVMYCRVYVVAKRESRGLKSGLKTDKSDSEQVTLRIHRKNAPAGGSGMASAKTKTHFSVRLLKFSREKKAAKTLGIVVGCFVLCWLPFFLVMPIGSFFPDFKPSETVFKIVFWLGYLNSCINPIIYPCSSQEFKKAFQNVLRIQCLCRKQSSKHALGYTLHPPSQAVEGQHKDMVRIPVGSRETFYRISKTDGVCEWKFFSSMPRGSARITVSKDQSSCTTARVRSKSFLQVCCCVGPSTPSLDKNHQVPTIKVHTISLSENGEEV

[6] = dog; oral clozapine (Mosier et al. 2003); cited from earlier work
[7] = target: T2, M2 muscarinic receptor (Homo sapiens, UniProt P08172); assay: R-SAT agonist assay
T2 sequence (P08172 1-466): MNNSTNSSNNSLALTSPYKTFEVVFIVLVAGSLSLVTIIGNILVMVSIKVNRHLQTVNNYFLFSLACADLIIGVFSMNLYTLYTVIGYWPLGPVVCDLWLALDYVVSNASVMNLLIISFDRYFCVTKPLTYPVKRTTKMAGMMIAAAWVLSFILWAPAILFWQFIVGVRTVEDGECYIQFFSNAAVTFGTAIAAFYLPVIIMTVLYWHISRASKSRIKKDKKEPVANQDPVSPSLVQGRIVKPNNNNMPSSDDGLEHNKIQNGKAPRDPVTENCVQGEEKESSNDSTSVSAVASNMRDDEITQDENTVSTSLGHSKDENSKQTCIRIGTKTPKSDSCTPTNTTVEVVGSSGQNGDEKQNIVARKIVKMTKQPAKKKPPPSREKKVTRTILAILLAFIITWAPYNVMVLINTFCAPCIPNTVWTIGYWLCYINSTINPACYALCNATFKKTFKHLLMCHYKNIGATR

[8] = test system: apomorphine-induced climbing; assay: Reversal of apomorphine-induced climbing; details: s.c.
[9] = target: T3, M5 muscarinic receptor (Homo sapiens, UniProt P08912); assay: R-SAT agonist assay; assay type: cell-based; set-up: expressed in transfected cells; host or cells: NIH/3T3
T3 sequence (P08912 1-532): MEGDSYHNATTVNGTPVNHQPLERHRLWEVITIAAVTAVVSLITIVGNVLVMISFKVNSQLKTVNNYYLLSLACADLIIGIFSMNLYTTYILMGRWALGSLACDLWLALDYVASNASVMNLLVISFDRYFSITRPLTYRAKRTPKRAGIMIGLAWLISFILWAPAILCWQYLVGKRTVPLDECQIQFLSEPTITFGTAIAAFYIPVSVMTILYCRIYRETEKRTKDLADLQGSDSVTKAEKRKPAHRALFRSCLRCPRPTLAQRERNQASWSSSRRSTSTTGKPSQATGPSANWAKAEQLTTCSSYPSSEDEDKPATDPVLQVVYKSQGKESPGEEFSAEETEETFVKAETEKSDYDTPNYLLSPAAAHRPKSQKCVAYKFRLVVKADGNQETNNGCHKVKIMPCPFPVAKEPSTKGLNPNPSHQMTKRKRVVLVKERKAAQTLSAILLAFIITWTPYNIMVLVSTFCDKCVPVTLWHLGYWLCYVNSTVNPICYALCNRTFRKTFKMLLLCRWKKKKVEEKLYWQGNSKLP

[10] = male, Sprague-Dawley, plasma, iv, 1 mg/kg, Plasma concentration after NDMC administration, NDMC i.v. 1 mg/kg, mean ± SD
[11] = male, Sprague-Dawley, plasma, iv, 1 mg/kg, Plasma concentration of compound measured after clozapine administration, clozapine i.v. 1 mg/kg, mean ± SD
[12] = male, Sprague-Dawley, plasma, po, 10 mg/kg, Plasma concentration after NDMC administration, NDMC p.o. 10 mg/kg, mean ± SD, two p.o. groups
[13] = male, Sprague-Dawley, plasma, po, 10 mg/kg, Plasma concentration after NDMC administration, NDMC p.o. 10 mg/kg, mean ± SD
[14] = male, Sprague-Dawley, plasma, po, 10 mg/kg, Plasma concentration of compound measured after clozapine administration, clozapine p.o. 10 mg/kg, mean ± SD
[15] = NDMC p.o. 10 mg/kg, mean ± SD, two p.o. groups, 10 mg/kg
[16] = R-SAT, relative to carbachol, No response/nr = no agonist activity up to 10 μM

Chain of M3 muscarinic receptor (P20309 whole entry): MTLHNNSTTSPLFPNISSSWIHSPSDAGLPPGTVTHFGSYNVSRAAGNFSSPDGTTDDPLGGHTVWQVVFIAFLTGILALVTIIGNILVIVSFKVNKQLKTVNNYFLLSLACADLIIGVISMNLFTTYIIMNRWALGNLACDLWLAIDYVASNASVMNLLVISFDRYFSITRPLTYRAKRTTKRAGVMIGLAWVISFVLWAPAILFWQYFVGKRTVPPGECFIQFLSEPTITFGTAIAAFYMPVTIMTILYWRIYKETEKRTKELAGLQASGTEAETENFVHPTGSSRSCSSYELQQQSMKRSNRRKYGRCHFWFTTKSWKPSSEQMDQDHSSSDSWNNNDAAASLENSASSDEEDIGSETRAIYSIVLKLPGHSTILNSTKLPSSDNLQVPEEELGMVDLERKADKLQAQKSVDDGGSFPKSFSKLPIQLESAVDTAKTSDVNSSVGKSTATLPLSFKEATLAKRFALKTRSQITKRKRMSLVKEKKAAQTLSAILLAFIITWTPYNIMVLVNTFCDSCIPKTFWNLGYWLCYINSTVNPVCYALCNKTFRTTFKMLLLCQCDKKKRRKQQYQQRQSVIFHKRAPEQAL
Chain of H1 receptors (P35367 whole entry): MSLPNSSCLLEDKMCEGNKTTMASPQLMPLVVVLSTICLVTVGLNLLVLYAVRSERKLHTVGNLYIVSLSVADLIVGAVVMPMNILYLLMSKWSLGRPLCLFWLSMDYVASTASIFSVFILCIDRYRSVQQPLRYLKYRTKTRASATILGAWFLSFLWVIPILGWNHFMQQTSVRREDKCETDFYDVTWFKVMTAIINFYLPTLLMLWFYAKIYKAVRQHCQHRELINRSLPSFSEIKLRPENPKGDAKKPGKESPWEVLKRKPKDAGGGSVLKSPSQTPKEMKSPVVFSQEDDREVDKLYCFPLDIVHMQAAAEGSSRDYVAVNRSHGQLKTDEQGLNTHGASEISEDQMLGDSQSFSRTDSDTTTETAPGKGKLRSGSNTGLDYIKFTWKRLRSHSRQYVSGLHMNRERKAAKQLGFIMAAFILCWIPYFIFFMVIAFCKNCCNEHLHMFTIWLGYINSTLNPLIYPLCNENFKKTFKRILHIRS

## Clc1ccc2c(c1)N=C(N1CCNCC1)c1ccccc1N2 [NDMC, 8-chloro-11-(1-piperazinyl)-5H-dibenzo [b,e][1,4] diazepine]
[1]
  Ki: 0.158 µM
[2]
  inhibition at 10 µM: ≥ 90%
[3]
  dose that attenuated amphetamine-induced hyperactivity: 10 mg/kg
[4]; male, Sprague-Dawley, plasma, iv, 1 mg/kg
  half-life: 39.3 min
[4]; [10]
  concentration at 10 min: 0.54 ± 0.046 µg/mL
  concentration at 30 min: 0.276 ± 0.03 µg/mL
  concentration at 60 min: 0.126 ± 0.038 µg/mL
  concentration at 120 min: 0.0337 ± 0.0114 µg/mL
  concentration at 180 min: 0.0117 ± 0.0038 µg/mL
  concentration at 240 min: 0.0053 ± 0.0003 µg/mL
[4]; [11]
  concentration at 30 min: 0.0028 ± 0.0012 µg/mL
  concentration at 60 min: 0.004 ± 0.0015 µg/mL
  concentration at 120 min: 0.0023 ± 0.001 µg/mL
  concentration at 180 min: 0.0007 ± 0.0001 µg/mL
  concentration at 240 min: 0.0008 ± 0.0006 µg/mL
[4]; male, Sprague-Dawley, plasma, iv, 1 mg/kg, after NDMC i.v. 1 mg/kg, read-out: Average AUC (converted)
  AUC: 0.456 µg·h/mL
[4]; male, Sprague-Dawley, plasma, iv, 1 mg/kg, after NDMC i.v. 1 mg/kg, read-out: Cmax
  Cmax: 0.756 µg/mL
[4]; male, Sprague-Dawley, plasma, iv, 1 mg/kg, after NDMC i.v. 1 mg/kg, read-out: Tmax
  Tmax: 0 min
[4]; male, Sprague-Dawley, plasma, iv, 1 mg/kg, after clozapine i.v. 1 mg/kg, read-out: Average AUC of compound measured (converted)
  AUC: 0.00816 µg·h/mL
[4]; male, Sprague-Dawley, plasma, iv, 1 mg/kg, after clozapine i.v. 1 mg/kg, read-out: Cmax of compound measured
  Cmax: 0.00399 µg/mL
[4]; male, Sprague-Dawley, plasma, iv, 1 mg/kg, after clozapine i.v. 1 mg/kg, read-out: Tmax of compound measured (converted)
  Tmax: 60 min
[4]; male, Sprague-Dawley, plasma, iv, 1 mg/kg, read-out: Vss
  Vd: 1.47 L/kg
[4]; [12]
  concentration at 10 min: 0.305 ± 0.101 µg/mL
  concentration at 30 min: 0.582 ± 0.265 µg/mL
  concentration at 60 min: 0.481 ± 0.181 µg/mL
[4]; [13]
  concentration at 120 min: 0.227 ± 0.075 µg/mL
  concentration at 180 min: 0.17 ± 0.026 µg/mL
  concentration at 240 min: 0.122 ± 0.054 µg/mL
[4]; [14]
  concentration at 120 min: 0.0425 ± 0.0151 µg/mL
  concentration at 180 min: 0.0134 ± 0.00254 µg/mL
  concentration at 240 min: 0.0071 ± 0.0005 µg/mL
[4]; male, Sprague-Dawley, plasma, po, 10 mg/kg, after NDMC p.o. 10 mg/kg, read-out: Average AUC (converted)
  AUC: 1.14 µg·h/mL
[4]; male, Sprague-Dawley, plasma, po, 10 mg/kg, after clozapine p.o. 10 mg/kg, read-out: Average AUC of compound measured (converted)
  AUC: 0.27 µg·h/mL
[4]; male, Sprague-Dawley, plasma, po, 10 mg/kg, after clozapine p.o. 10 mg/kg, read-out: Tmax of compound measured (converted)
  Tmax: 30 min
[4]; male, Sprague-Dawley, serum, oral, 10 mg/kg
  bioavailability: ~25%
[4]; male, Sprague-Dawley, serum, po, 10 mg/kg, after NDMC p.o. 10 mg/kg, read-out: Cmax
  Cmax: 0.582 µg/mL
[4]; male, Sprague-Dawley, serum, po, 10 mg/kg, after NDMC p.o. 10 mg/kg, read-out: Tmax
  Tmax: ≤ 30 min
[4]; male, Sprague-Dawley, serum, po, 10 mg/kg, after clozapine p.o. 10 mg/kg, read-out: Cmax of compound measured
  Cmax: 0.194 µg/mL
[4]; male, Sprague-Dawley, serum, po, 10 mg/kg
  bioavailability: 25%
[4]; [15]
  Plasma concentration after NDMC administration, 10 min: 0.277 ± 0.057 µg/mL
  Plasma concentration after NDMC administration, 30 min: 0.576 ± 0.161 µg/mL
  Plasma concentration after NDMC administration, 60 min: 0.614 ± 0.06 µg/mL
[4]; after NDMC i.v. 1 mg/kg
  CLs: 2.17 L/h/kg
[5]
  pKi α1A, competitive antagonist: 7.3 ± 0.1
[6]
  Cmax of desmethylclozapine as share of that of clozapine: approximately 20%
[7]; M2 pEC50, R-SAT agonist
  EC50: 0.339 µM and 0.316 µM
[7]; [16]
  M2 Efficacy: 106 ± 19%
[8]
  minimal effective dose, reduction of apomorphine-induced climbing: > 100 mg/kg
[9]; R-SAT agonist, read-out: M5 pEC50 (converted)
  EC50: 0.0234 µM and 0.0251 µM
[9]; [16]
  M5 Efficacy: 48 ± 6%
[9]; functional pharmacological screen, read-out: Ki, partial agonist of M5
  Ki: 0.025 µM

— patent US20050085463A1 (priority 2003, published 2005)
